In test [1] the target is T1, Recombinant human integrin αVβ3 (Homo sapiens, UniProt P05106+P06756).
T1 construct: purchased R&D Systems 3050-AV
The test is described as follows: Solid Phase Receptor Assay for αVβ3 function. In kind it is binding. Particulars: plate-bound human vitronectin; read-out: αVβ3 SPRA IC50. How it is done:
C. […] Wells were washed 3 times with 150 μL TBS+ and then 150 μL of blocking buffer (TBS+ with 1% bovine serum albumin, Sigma A7906) was added. The plate was incubated for 1 hr at 37° C. and then washed 3× with TBS+ buffer. […] Compounds were diluted to 20 μM and then 1 μL was added to each well of the plate according to a standard template with each sample repeated in triplicate. After incubation for two hours at room temperature, the plate was washed 3× with 150 μL of TBS+ buffer. To each well, 50 μL of biotinylated anti-αV antibody (R&D Systems, BAF1219) at 0.5 μg/mL in TBS+/0.1% BSA were added and the plate covered and incubated for 1 hr at room temperature. After washing the plate 3× with 150 μL of TBS+ buffer, 50 μL of streptavidin-conjugated horseradish peroxidase (R&D Systems, DY998) diluted in TBS+ blocking buffer were added to the wells and the plate incubated for 20 min at room temperature. The plate was washed 3× with TBS+ buffer followed by 50 μL of TMB substrate (Sigma, T4444) added to each well in the dark and the plate was incubated for 25 min at room temperature. 25 μL of 1.0 M phosphoric acid was added as a stop solution and the plates were read at 450 nm using a Spectramax plate reader.

The target in test [2] is T2, Recombinant human integrin α5β1 (Homo sapiens, UniProt P05556+P08648).
T2 construct: purchased R&D Systems 3230-A5
T2 sequence (P08648 42-995 limits assumed): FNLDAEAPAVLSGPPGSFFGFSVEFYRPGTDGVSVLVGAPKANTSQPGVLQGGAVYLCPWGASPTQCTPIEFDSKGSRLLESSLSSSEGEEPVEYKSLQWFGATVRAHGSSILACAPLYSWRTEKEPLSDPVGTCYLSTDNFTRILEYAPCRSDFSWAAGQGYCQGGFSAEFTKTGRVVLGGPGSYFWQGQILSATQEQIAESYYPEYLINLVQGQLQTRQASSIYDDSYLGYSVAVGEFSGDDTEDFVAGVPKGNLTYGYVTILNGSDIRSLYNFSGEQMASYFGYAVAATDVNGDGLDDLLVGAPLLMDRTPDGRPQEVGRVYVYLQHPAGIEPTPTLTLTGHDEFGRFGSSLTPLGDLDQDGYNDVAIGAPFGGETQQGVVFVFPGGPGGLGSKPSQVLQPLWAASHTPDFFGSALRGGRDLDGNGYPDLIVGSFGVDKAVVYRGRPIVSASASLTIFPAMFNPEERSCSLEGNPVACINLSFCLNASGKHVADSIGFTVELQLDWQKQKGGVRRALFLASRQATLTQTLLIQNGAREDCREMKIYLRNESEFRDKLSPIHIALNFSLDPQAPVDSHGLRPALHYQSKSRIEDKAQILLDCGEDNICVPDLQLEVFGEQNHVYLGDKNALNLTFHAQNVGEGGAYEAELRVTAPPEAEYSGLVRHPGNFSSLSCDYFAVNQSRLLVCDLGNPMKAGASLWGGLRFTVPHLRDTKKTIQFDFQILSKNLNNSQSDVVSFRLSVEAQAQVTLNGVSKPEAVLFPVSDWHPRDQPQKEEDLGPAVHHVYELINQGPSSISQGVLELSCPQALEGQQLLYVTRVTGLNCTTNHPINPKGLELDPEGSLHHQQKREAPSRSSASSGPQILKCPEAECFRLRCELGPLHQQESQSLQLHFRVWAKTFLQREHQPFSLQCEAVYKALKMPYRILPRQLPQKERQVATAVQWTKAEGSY
T2 sequence (P05556 21-728 limits assumed): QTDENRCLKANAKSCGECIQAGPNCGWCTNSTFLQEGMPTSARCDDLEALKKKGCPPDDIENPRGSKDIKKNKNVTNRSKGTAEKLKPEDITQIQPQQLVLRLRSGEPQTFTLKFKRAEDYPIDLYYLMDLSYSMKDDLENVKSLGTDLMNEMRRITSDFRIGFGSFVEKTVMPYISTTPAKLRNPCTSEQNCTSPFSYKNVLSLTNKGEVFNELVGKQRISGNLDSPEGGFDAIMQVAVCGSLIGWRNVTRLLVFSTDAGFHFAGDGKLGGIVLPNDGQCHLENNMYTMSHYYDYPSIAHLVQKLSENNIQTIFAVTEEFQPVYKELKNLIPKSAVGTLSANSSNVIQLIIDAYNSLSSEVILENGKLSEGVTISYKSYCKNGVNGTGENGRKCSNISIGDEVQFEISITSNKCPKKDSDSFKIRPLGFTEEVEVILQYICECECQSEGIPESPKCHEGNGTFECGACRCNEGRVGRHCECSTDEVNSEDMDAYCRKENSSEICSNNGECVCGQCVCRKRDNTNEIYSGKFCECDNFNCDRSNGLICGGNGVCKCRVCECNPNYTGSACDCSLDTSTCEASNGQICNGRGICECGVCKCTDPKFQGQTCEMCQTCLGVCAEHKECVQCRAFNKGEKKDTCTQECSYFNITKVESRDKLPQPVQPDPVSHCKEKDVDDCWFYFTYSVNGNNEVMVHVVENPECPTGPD
Briefly: Solid Phase Receptor Assay (SPRA) for α5β1 function. The format is binding. Particulars: plate-bound human fibronectin. How it is done:
A. Solid Phase Receptor Assay (SPRA) for α5β1 Function
Wells were washed 3 times with 150 μL TBS+ and then 150 μL of blocking buffer (TBS+ with 1% bovine serum albumin, Sigma A7906) was added. The plate was incubated for 1 hr at 37° C. and then washed 3× with TBS+ buffer. […] Compounds were diluted to 20 μM and then 1 μL was added to each well of the plate according to a standard template with each sample repeated in triplicate. After incubation for two hours at room temperature, the plate was washed 3× with 150 μL of TBS+ buffer. To each well, 50 μL of biotinylated anti-α5 antibody (R&D Systems, BAF1864) at 0.5 μg/mL in TBS+/0.1% BSA were added and the plate covered and incubated for 1 hr at room temperature. After washing the plate 3× with 150 μL of TBS+ buffer, 50 μL of streptavidin-conjugated horseradish peroxidase (R&D Systems, DY998) diluted in TBS+ blocking buffer were added to the wells and the plate incubated for 20 min at room temperature. The plate was washed 3× with TBS+ buffer followed by 50 μL of room temperature TMB substrate (Sigma, T4444) added to each well in the dark and the plate incubated for 25 min at room temperature. 25 μL of 1.0 M phosphoric acid was added as a stop solution and the plates were read at 450 nm using a Spectramax plate reader.

Structures are written as SMILES. Structures can show the parent of a compound that is named as a salt.

T1 sequence (P06756 31-992 limits assumed): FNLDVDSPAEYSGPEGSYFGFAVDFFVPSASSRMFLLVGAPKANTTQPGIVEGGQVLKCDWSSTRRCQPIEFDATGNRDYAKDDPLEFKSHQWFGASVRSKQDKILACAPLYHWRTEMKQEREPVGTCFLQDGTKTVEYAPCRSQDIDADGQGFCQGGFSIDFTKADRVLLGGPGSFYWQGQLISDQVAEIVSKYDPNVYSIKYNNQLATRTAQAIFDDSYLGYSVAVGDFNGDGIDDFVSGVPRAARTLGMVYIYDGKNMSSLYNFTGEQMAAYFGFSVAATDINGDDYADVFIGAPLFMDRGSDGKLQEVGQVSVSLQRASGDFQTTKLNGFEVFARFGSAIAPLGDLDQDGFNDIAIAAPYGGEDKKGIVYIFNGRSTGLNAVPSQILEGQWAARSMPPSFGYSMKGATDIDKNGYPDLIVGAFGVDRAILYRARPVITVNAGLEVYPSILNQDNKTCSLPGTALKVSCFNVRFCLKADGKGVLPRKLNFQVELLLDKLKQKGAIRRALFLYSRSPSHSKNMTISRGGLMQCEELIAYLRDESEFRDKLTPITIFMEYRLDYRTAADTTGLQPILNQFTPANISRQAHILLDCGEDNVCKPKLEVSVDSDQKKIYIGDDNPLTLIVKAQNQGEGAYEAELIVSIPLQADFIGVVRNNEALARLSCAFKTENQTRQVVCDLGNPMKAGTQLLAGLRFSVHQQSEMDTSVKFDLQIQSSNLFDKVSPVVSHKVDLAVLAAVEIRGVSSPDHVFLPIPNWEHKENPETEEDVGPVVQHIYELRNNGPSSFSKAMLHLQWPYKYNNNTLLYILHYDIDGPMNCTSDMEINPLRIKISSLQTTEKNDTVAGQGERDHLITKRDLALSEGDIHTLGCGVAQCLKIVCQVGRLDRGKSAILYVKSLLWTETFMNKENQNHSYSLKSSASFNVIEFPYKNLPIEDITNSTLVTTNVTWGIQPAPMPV
T1 sequence (P05106 27-718 limits assumed): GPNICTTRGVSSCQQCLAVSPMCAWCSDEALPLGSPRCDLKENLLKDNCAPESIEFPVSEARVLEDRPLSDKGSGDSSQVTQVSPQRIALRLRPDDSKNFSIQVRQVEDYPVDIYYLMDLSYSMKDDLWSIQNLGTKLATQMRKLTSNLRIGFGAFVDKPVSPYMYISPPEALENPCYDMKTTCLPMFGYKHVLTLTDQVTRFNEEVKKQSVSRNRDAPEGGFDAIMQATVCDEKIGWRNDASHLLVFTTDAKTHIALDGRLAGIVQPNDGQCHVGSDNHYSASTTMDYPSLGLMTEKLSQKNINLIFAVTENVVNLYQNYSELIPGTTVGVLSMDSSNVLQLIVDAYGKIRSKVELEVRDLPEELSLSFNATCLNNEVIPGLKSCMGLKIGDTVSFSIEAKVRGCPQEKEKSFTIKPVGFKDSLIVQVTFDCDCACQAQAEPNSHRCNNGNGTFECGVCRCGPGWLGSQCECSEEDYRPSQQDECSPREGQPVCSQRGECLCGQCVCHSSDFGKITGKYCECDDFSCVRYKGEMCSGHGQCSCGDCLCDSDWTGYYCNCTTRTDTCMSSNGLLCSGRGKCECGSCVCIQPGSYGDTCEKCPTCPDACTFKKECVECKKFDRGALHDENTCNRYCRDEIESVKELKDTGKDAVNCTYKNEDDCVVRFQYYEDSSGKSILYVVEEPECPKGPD

As a reminder, the IC50 is the concentration needed to halve the response being measured. As for `Cn1nc(CC(CC(=O)O)c2cc(C(C)(C)C)cc(C3(C(F)F)CC3)c2)cc1OCCc1ccc2c(n1)NCCC2` (stereo not shown) [Example 6, 3-(3-(tert-butyl)-5-(1-(difluoromethyl)cyclopropyl)phenyl)-4-(1-methyl-5-(2-(5,6,7,8-tetrahydro-1,8-naphthyridin-2-yl)ethoxy)-1H-pyrazol-3-yl)butanoic acid], the IC50 in test [1] was 120 nM; in test [2], 6 nM.

Turning to `COc1c(C(C)C)cc(C(CC(=O)O)Cc2cc(OCCc3ccc4c(n3)NCCC4)n(C)n2)cc1C(C)C` (stereo not shown) [Example 25, 3-(3,5-diisopropyl-4-methoxy-phenyl)-4-[1-methyl-5-[2-(5,6,7,8-tetrahydro-1,8-naphthyridin-2-yl)ethoxy]pyrazol-3-yl]butanoic acid], the IC50 is 37 nM in test [1] and 2 nM in test [2].

`O=C(O)CC(Cc1cc(OCCc2ccc3c(n2)NCCC3)[nH]n1)c1cccc(F)c1` (stereo not shown) [CC2, reference compound]: the IC50 worked out at 3.1 nM in test [1] and 770 nM in test [2].

`COc1c(C(C)C)cc(C(CC(=O)O)Cc2csc(CCCc3ccc4c(n3)NCCC4)n2)cc1C(C)C` (stereo not shown) [Example 26, 3-(3,5-diisopropyl-4-methoxy-phenyl)-4-[2-[3-(5,6,7,8-tetrahydro-1,8-naphthyridin-2-yl)propyl]thiazol-4-yl]butanoic acid]: the IC50 in test [1] was found to be 530 nM; in test [2], 61 nM.

Consider `Cn1nc(CC(CC(=O)O)c2cc(C(C)(C)C)ccc2F)cc1OCCc1ccc2c(n1)NCCC2` (stereo not shown) [Example 19, 3-(5-(tert-butyl)-2-fluorophenyl)-4-(1-methyl-5-(2-(5,6,7,8-tetrahydro-1,8-naphthyridin-2-yl)ethoxy)-1H-pyrazol-3-yl)butanoic acid], for which the IC50 in test [1] came out at 6 nM; in test [2], 10 nM.

On to `Cn1nc(CC(CC(=O)O)c2cc(C(C)(C)C)cc(C(C)(C)CO)c2)cc1OCCc1ccc2c(n1)NCCC2` (stereo not shown) [Example 7, 3-[3-tert-butyl-5-(2-hydroxy-1,1-dimethyl-ethyl)phenyl]-4-[1-methyl-5-[2-(5,6,7,8-tetrahydro-1,8-naphthyridin-2-yl)ethoxy]pyrazol-3-yl]butanoic acid], for which the half-maximal inhibitory concentration (IC50) in test [1] turned out to be 17 nM; in test [2], 1 nM.

Take `CC(C)c1cc(C(C)C)cc(C(CC(=O)O)Cc2cc(OCCc3ccc4c(n3)NCCC4)n(C)n2)c1` (stereo not shown) [Example 4, 3-(3,5-diisopropylphenyl)-4-[1-methyl-5-[2-(5,6,7,8-tetrahydro-1,8-naphthyridin-2-yl)ethoxy]pyrazol-3-yl]butanoic acid]: the results for the IC50 in test [1] and in test [2] were 15 nM and 4 nM, respectively.

In the case of `COc1ccc(C2=CCOCC2)cc1[C@@H](CC(=O)O)Cc1csc(CCCc2ccc3c(n2)NCCC3)n1` [Example 37B, (R)-3-(5-(3,6-dihydro-2H-pyran-4-yl)-2-methoxyphenyl)-4-(2-(3-(5,6,7,8-tetrahydro-1,8-naphthyridin-2-yl)propyl)thiazol-4-yl)butanoic acid trifluoroacetate], the IC50 in test [1] is 940 nM; in test [2] it was 2800 nM.

(Values after patent US20210284638A1 (Saint Louis University, priority 2018, published 2021).)
